According to patent US11236047B2 (ASTEX THERAPEUTICS LIMITED, priority 2017, dated 2022):

What was measured:
MDM2-p53 interaction = MDM2-p53 interaction (Homo sapiens (Human), UniProt Q00987); conditions: for inhibition at 0.03 µM: read-out: MDM2 % inhibition @0.030; for inhibition at 0.001 µM: read-out: MDM2 % inhibition @0.0010; for inhibition at 0.003 µM: read-out: MDM2 % inhibition @0.0030
Protocol: MDM2-053 Interaction Using a 96-Well Plate Binding Assay (ELISA)
The ELISA assay was performed in streptavidin coated plates which were preincubated with 200 μl per well of 1 μg ml^−1 biotinylated IP3 peptide. The plates were ready to use for MDM2 binding after washing the plate with PBS.
The bound HRP activity was measured by enhanced chemiluminesence (ECL™, Amersham Biosciences) using the oxidation of the diacylhydrazide substrate, luminol, to generate a quantifiable light signal. The percentage of MDM2 inhibition at a given concentration is calculated as the [1−(RLU detected in the compound treated sample−RLU negative DMSO control)÷(RLU of DMSO positive and negative controls)]×100 or as the (RLU detected in the compound treated sample÷RLU of DMSO controls)×100. The IC50 was calculated using a plot of % MDM2 inhibition vs concentration and is the average of two or three independent experiments.

SN40R2 cells = assay: Protocol B: SN40R2 CellTiter-Glo luminescent cell viability assay; conditions: for inhibition at 10 µM: read-out: SN40R2 % inhibition at 10, Protocol B, SN40R2, at 10 μM; for inhibition at 3 µM: read-out: SN40R2 % inhibition at 3, Protocol B, SN40R2, at 3 μM
Protocol: Protocol B: SJSA-1 and SN40R2 Assays
The CellTiter-Glo® Luminescent Cell Viability Assay is a homogeneous method to determine the number of viable cells in culture based on quantitation of the ATP present, which signals the presence of metabolically active cells. […] 100 μl of CTG reagent (Promega #G7573) was added to all wells and luminescence was measured on the topcount. The EC50 values were determined from a sigmoidal 4 parameter curve fit using XLfit in conjunction with Activity Base (IDBS; Guildford, Surrey, UK).

Chain of MDM2-p53 interaction (Q00987 whole entry): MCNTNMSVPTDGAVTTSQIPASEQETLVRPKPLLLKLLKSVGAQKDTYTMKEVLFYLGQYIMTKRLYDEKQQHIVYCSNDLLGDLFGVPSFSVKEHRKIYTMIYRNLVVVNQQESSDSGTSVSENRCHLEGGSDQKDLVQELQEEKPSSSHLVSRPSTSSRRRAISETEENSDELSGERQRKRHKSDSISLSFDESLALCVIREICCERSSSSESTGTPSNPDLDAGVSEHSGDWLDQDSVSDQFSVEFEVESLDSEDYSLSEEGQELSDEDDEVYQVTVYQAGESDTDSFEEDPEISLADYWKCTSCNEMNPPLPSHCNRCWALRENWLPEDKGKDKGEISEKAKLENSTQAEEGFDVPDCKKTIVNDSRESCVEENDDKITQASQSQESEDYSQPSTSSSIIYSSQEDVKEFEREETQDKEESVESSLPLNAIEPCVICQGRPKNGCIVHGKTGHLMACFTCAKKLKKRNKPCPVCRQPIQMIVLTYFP

Row | Structure (SMILES) | inhibition at 10 µM (SN40R2 cells) | inhibition at 0.001 µM (MDM2-p53 interaction) | other results
1 | Cc1c[nH]c(C(C)(O)c2cc(F)c3c(c2)C(=O)N(Cc2ccc(Cl)cn2)[C@@]3(OCC2(O)CC2)c2ccc(Cl)cc2)n1 (mixture of isomers) [Example 332, (3R)-3-(4-chlorophenyl)-2-[(5-chloropyridin-2-yl)methyl]-4-fluoro-6-[1-hydroxy-1-(4-methyl-1H-imidazol-2-yl)ethyl]-3-[(1-hydroxycyclopropyl)methoxy]-2,3-dihydro-1H-isoindol-1-one] | 5% | – | inhibition at 0.03 µM (MDM2-p53 interaction): 60%
2 | CCC(O)(c1cc(F)c2c(c1)C(=O)N(Cc1ncc(Cl)cn1)[C@@]2(O[C@H]1CCOC1)c1ccc(Cl)cc1)C1CCNCC1 (single isomer, unassigned) [Example 448] | – | 84% | inhibition at 30 µM (SN40R2 cells; read-out: SN40R2 % inhibition at 30, Protocol B, SN40R2, at 30 μM): 48%
3 | CCC(O)(c1cc(F)c2c(c1)C(=O)N(Cc1ncc(Cl)cn1)[C@@]2(O[C@H]1CCOC1)c1ccc(Cl)cc1)C1CCN(C)CC1 (single isomer, unassigned) [Example 449] | 19% | 78% | –
4 | CCCC(O)(c1cc(F)c2c(c1)C(=O)N(Cc1ccc(C#N)cn1)[C@@]2(O[C@H]1CCOC1)c1ccc(Cl)cc1)c1cn(C)cn1 (single isomer, unassigned) [Example 472] | 10% | – | inhibition at 0.003 µM (MDM2-p53 interaction): 48%
5 | CCC(O)(c1cc(F)c2c(c1)C(=O)N(Cc1ncc(Cl)cc1O)[C@@]2(O[C@H]1C[C@@H](O)C1)c1ccc(Cl)cc1)c1cn(C)cn1 (single isomer, unassigned) [Example 487] | 12% | 59% | –
6 | CCC(O)(c1cc(F)c2c(c1)C(=O)N(Cc1ccc(C#N)cn1)[C@@]2(OC)c1ccc(Cl)cc1)[C@H]1CC[C@H](O)CC1 (single isomer, unassigned) [Example 521] | 11% | 77% | –
7 | CCC(O)(c1cc(F)c2c(c1)C(=O)N(Cc1ncc(Cl)cn1)[C@@]2(O[C@H]1C[C@@H](O)C1)c1ccc(Cl)cc1)C1(F)CCNCC1 (single isomer, unassigned) [Example 542] | -1% | – | inhibition at 0.01 µM (MDM2-p53 interaction; read-out: MDM2 % inhibition @0.010): 57%
8 | CCC(O)(c1cc(F)c2c(c1)C(=O)N(Cc1ncc(Cl)cn1)[C@@]2(OC[C@@H](C)O)c1ccc(Cl)cc1)C1(F)CCNCC1 (single isomer, unassigned) [Example 543] | -6% | 68% | –
9 | CCC(O)(c1cc(F)c2c(c1)C(=O)N(Cc1ncc(Cl)cn1)[C@@]2(OC)c1ccc(Cl)cc1)C1(F)CCNCC1 (single isomer, unassigned) [Example 544] | 109% | 86% | –
10 | CCC(O)(c1cc(F)c2c(c1)C(=O)N(Cc1ncc(Cl)cn1)[C@@]2(OCC1(C#N)CC1)c1ccc(Cl)cc1)C1(F)CCNCC1 (single isomer, unassigned) [Example 545] | – | 94% | inhibition at 3 µM (SN40R2 cells): 4%
11 | CCC(O)(c1cc(F)c2c(c1)C(=O)N(Cc1ccc(C#N)cn1)[C@@]2(O[C@H]1CCOC1)c1ccc(Cl)cc1)C1(F)CCNCC1 (single isomer, unassigned) [Example 546] | 17% | 86% | –
12 | CCC(O)(c1cc(F)c2c(c1)C(=O)N(Cc1ncc(C#N)cn1)[C@@]2(O[C@H]1CCOC1)c1ccc(Cl)cc1)C1(F)CCNCC1 (single isomer, unassigned) [Example 547] | 4% | 82% | –
13 | CCC(O)(c1cc(F)c2c(c1)C(=O)N(Cc1ccc(Cl)cn1)[C@@]2(O[C@H]1CCOC1)c1ccc(Cl)cc1)C1(F)CCNCC1 (single isomer, unassigned) [Example 548] | 111% | 82% | –
14 | CCC(O)(c1cc(F)c2c(c1)C(=O)N(Cc1ccc(Cl)cn1)[C@@]2(OC[C@@H](C)O)c1ccc(Cl)cc1)C1(F)CCNCC1 (single isomer, unassigned) [Example 549] | 33% | 85% | –
15 | CCC(O)(c1cc(F)c2c(c1)C(=O)N(Cc1ncc(Cl)cn1)[C@@]2(OC)c1ccc(Cl)cc1)C1(F)CCN(C2COC2)CC1 (single isomer, unassigned) [Example 552] | 7% | 79% | –
16 | CN1CCC(C(C)(O)c2cc(F)c3c(c2)C(=O)N(Cc2ncc(Cl)cn2)[C@@]3(OCC2(F)COC2)c2ccc(Cl)cc2)CC1 (single isomer, unassigned) [Example 558] | 6% | – | inhibition at 0.003 µM (MDM2-p53 interaction): 53%

Row | Structure (SMILES) | inhibition at 10 µM (SN40R2 cells) | inhibition at 0.001 µM (MDM2-p53 interaction) | other results
17 | CCC(O)(c1cc(F)c2c(c1)C(=O)N(Cc1ncc(C#N)cn1)[C@@]2(O[C@H]1CCOC1)c1ccc(Cl)cc1)C1(F)CCN(C)CC1 (single isomer, unassigned) [Example 561] | 12% | 47% | –
18 | CCC(O)(c1cc(F)c2c(c1)C(=O)N(Cc1ncc(Cl)cn1)[C@@]2(OC)c1ccc(Cl)cc1)C1(F)CCN(C)CC1 (single isomer, unassigned) [Example 563] | 72% | 76% | –
19 | CCC(O)(c1cc(F)c2c(c1)C(=O)N(Cc1ncc(Cl)cn1)[C@@]2(OCC1(C#N)CC1)c1ccc(Cl)cc1)C1(F)CCN(C)CC1 (single isomer, unassigned) [Example 564] | – | 86% | inhibition at 3 µM (SN40R2 cells): 10%
20 | CCC(O)(c1cc(F)c2c(c1)C(=O)N(Cc1ncc(Cl)cn1)[C@@]2(OCCO)c1ccc(Cl)cc1)C1(F)CCN(C)CC1 (single isomer, unassigned) [Example 565] | 11% | 65% | –
21 | CCC(O)(c1cc(F)c2c(c1)C(=O)N(Cc1ncc(Cl)cn1)[C@@]2(O[C@H]1C[C@@H](O)C1)c1ccc(Cl)cc1)C1(F)CCN(C)CC1 (single isomer, unassigned) [Example 570] | 26% | 83% | –
22 | CCC(O)(c1cc(F)c2c(c1)C(=O)N(Cc1ncc(Cl)cn1)[C@@]2(O[C@H]1CCOC1)c1ccc(Cl)cc1)C1(F)CCN(C)CC1 (single isomer, unassigned) [Example 571] | 38% | 77% | –
23 | CCC(O)(c1cc(F)c2c(c1)C(=O)N(Cc1ncc(C#N)cn1)[C@@]2(OCC1(C#N)CC1)c1ccc(Cl)cc1)C1(F)CCN(C)CC1 (single isomer, unassigned) [Example 574] | 27% | 45% | –
24 | CCC(O)(c1cc(F)c2c(c1)C(=O)N(Cc1ncc(C#N)cn1)[C@@]2(OC)c1ccc(Cl)cc1)C1(F)CCN(C)CC1 (single isomer, unassigned) [Example 575] | 14% | 38% | –
25 | CCC(O)(c1cc(F)c2c(c1)C(=O)N(Cc1ncc(C#N)cn1)[C@@]2(OC)c1ccc(Cl)cc1)[C@H]1CC[C@H](O)CC1 (stereo partly drawn) [Example 504, 2-{[(1R)-1-(4-chlorophenyl)-7-fluoro-5-{1-hydroxy-1-[trans-4-hydroxycyclohexyl]propyl}-1-methoxy-3-oxo-2,3-dihydro-1H-isoindol-2-yl]methyl}pyrimidine-5-carbonitrile] | 0% | 71% | –
26 | CC[C@@](O)(c1cc(F)c2c(c1)C(=O)N(Cc1ncc(C#N)cn1)[C@@]2(O[C@H]1C[C@@H](O)C1)c1ccc(Cl)cc1)C1(F)CCOCC1 [Example 505, 2-{[(1R)-1-(4-chlorophenyl)-7-fluoro-5-[(1R)-1-(4-fluorooxan-4-yl)-1-hydroxypropyl]-3-oxo-1-[cis-3-hydroxycyclobutoxy]-2,3-dihydro-1H-isoindol-2-yl]methyl}pyrimidine-5-carbonitrile] | 5% | 60% | –
27 | CC[C@](O)(c1cc(F)c2c(c1)C(=O)N(Cc1ncc(C#N)cn1)[C@@]2(O[C@H]1C[C@@H](O)C1)c1ccc(Cl)cc1)C1(F)CCOCC1 [Example 506, 2-{[(1R)-1-(4-chlorophenyl)-7-fluoro-5-[(1S)-1-(4-fluorooxan-4-yl)-1-hydroxypropyl]-3-oxo-1-[cis-3-hydroxycyclobutoxy]-2,3-dihydro-1H-isoindol-2-yl]methyl}pyrimidine-5-carbonitrile] | 2% | – | inhibition at 0.03 µM (MDM2-p53 interaction): 36%
28 | CC[C@@](O)(c1cc(F)c2c(c1)C(=O)N(Cc1ncc(C#N)cn1)[C@@]2(O[C@H]1CCOC1)c1ccc(Cl)cc1)C1(F)CCOCC1 [Example 507, 2-{[(1R)-1-(4-chlorophenyl)-7-fluoro-5-[(1R)-1-(4-fluorooxan-4-yl)-1-hydroxypropyl]-3-oxo-1-[(3S)-oxolan-3-yloxy]-2,3-dihydro-1H-isoindol-2-yl]methyl}pyrimidine-5-carbonitrile] | – | – | inhibition at 0.003 µM (MDM2-p53 interaction): 65%; inhibition at 3 µM (SN40R2 cells): 5%
29 | CCC(O)(c1cc(F)c2c(c1)C(=O)N(Cc1ncc(Cl)cn1)[C@@]2(OC)c1ccc(Cl)cc1)[C@H]1CC[C@H](O)CC1 (stereo partly drawn) [Example 511, (3R)-3-(4-chlorophenyl)-2-[(5-chloropyrimidin-2-yl)methyl]-4-fluoro-6-{1-hydroxy-1-[trans-4-hydroxycyclohexyl]propyl}-3-methoxy-2,3-dihydro-1H-isoindol-1-one] | 10% | 72% | –
30 | CC[C@@](O)(c1cc(F)c2c(c1)C(=O)N(Cc1ncc(Cl)cn1)[C@@]2(OC)c1ccc(Cl)cc1)C1CCN(C2COC2)CC1 [Example 551, (3R)-3-(4-chlorophenyl)-2-[(5-chloropyrimidin-2-yl)methyl]-4-fluoro-6-[(1S)-1-hydroxy-1-[1-(oxetan-3-yl)piperidin-4-yl]propyl]-3-methoxy-2,3-dihydro-1H-isoindol-1-one] | 13% | 70% | –
31 | CC[C@@](O)(c1cc(F)c2c(c1)C(=O)N(Cc1ncc(Cl)cn1)[C@@]2(OCC1(CO)CC1)c1ccc(Cl)cc1)C1CCN(C)CC1 [Example 556, (3R)-3-(4-chlorophenyl)-2-[(5-chloropyrimidin-2-yl)methyl]-4-fluoro-6-[(1S)-1-hydroxy-1-(1-methylpiperidin-4-yl)propyl]-3-{[1-(hydroxymethyl)cyclopropyl]methoxy}-2,3-dihydro-1H-isoindol-1-one] | 14% | 91% | –
